Measured values reported in article PMC5086919, “Antileukemic Scalarane Sesterterpenoids and Meroditerpenoid from Carteriospongia (Phyllospongia) sp., Induce Apoptosis via Dual Inhibitory Effects on Topoisomerase II and Hsp90” (Scientific Reports, 2016).
In brackets after ≈: the same amount, converted by molar mass. Read-outs that look alike come from different tables or passages of the source.

Legend:
DLD-1 cells = test: MTT antiproliferative assay, colon cancer DLD-1 cells; details: Homo sapiens, DLD-1, 72 h, read-out: IC50, cytotoxicity, Colon DLD-1
Description: (§2) Several cancer cell lines including leukemia K562, Molt 4, and HL 60 cells, prostate cancer LNCaP cells, colon cancer DLD-1 cells and breast cancer T-47D cells were used to evaluate the antiproliferative activity.
(§3) The cell lines were obtained from the American Type Culture Collection (ATCC, Manassas, VA, USA). […] Dimethyl sulfoxide (DMSO), 3-(4,5-dimethylthiazol-2-yl)-2,5-diphenyl-tetrazolium bromide (MTT) and all other chemicals were purchased from Sigma-Aldrich (St. Louis, MO, USA).

K562 cells = test: MTT antiproliferative assay, leukemia K562 cells; details: Homo sapiens, K562, 72 h, read-out: IC50, cytotoxicity, Leukemia K562
Description: as §2, §3

Molt 4 cells [1] = test: Annexin V/PI apoptosis assay; assay type: cell-based, human
Description: The externalization of phosphatidylserine (PS) and membrane integrity were quantified using an annexin V- FITC staining kit[72]. In brief, 10^6 cells were grown in 35 mm diameter plates and were labeled with annexin V-FITC (10 μg/mL) and PI (20 μg/mL) prior to harvesting. After labeling, all plates were washed with a binding buffer and harvested. Cells were resuspended in the binding buffer at a concentration of 2 × 10^5 cells/mL before analysis by flow cytometer FACS-Calibur (Becton-Dickinson, San Jose, CA, USA) and CellQuest software. Approximately 10,000 cells were counted for each determination.

T-47D cells = test: MTT antiproliferative assay, breast cancer T-47D cells; details: Homo sapiens, T47D, 72 h, read-out: IC50, cytotoxicity, Breast T-47D
Description: as §2, §3

LNCaP cells = test: MTT antiproliferative assay, prostate cancer LNCaP cells; details: Homo sapiens, 72 h, read-out: IC50, cytotoxicity, Prostate LNCaP
Description: as §2, §3

U937 cells = test: MTT antiproliferative assay, lymphoma U937 cells; details: Homo sapiens, U-937, 72 h, read-out: IC50, cytotoxicity, Lymphoma U937
Molt 4 cells [2] = test: Intracellular Ca2+ accumulation, Fluo 3 flow cytometry; assay type: cell-based, human; details: 0.0625 μg/mL
Description: Oxidative stress is manifested by ROS overexpression and cannot be balanced by the available antioxidant machinery. Compound 1 can damage the integrity of mitochondria, which are the major production sites of the superoxide anion, […]. The induction of the intracellular formation of ROS by 1 was determined with a carboxyl derivative of fluorescein, carboxy-H2DCFDA dye using flow cytometric analysis. […] In addition, ROS generation could induce ER stress leading to mitochondria-related apoptosis. To further investigate if ER stress is involved in the apoptotic effect induced by 1, Western blot analysis was used to determine the expression of ER stress-related proteins. […] Furthermore, the effect of 1 on the release of intracellular Ca^2+, was evaluated using fluorescent calcium indicator, Fluo 3. […] The induction of the typical executor caspases-3 and −7, as well as γH2AX, was also observed using Western blot analysis (Fig. 7D). To confirm the induction of DNA damage by 1 in Molt 4 cells, a comet assay under neutral electrophoresis condition was utilized. The effect of 1 (0.0625 μg/mL) at different time intervals (0, 3, 6 and 9 h) on the level of nuclear DNA integrity was determined. […] The DNA migration was represented by the induction of DSBs in a time-dependent increase, as indicated by the abnormal tails’ sizes in the comet assay.
(§1) These assays were performed as described previously. […] In brief, the treated cells were labeled with a specific fluorescent dye for 30 min. After labeling, cells were washed with PBS and resuspended in PBS at a concentration of 1 × 10^6 cells/mL before analysis via flow cytometry.

Molt 4 cells [3] = test: Neutral comet assay for DNA double-strand breaks; assay type: cell-based, human; details: 0.0625 μg/mL; 0, 3, 6 and 9 h; neutral electrophoresis
Description: Oxidative stress is manifested by ROS overexpression and cannot be balanced by the available antioxidant machinery. Compound 1 can damage the integrity of mitochondria, which are the major production sites of the superoxide anion, […]. The induction of the intracellular formation of ROS by 1 was determined with a carboxyl derivative of fluorescein, carboxy-H2DCFDA dye using flow cytometric analysis. […] In addition, ROS generation could induce ER stress leading to mitochondria-related apoptosis. To further investigate if ER stress is involved in the apoptotic effect induced by 1, Western blot analysis was used to determine the expression of ER stress-related proteins. […] Furthermore, the effect of 1 on the release of intracellular Ca^2+, was evaluated using fluorescent calcium indicator, Fluo 3. […] The effect of 1 (0.0625 μg/mL) at different time intervals (0, 3, 6 and 9 h) on the level of nuclear DNA integrity was determined. […]
The assay was carried out using a CometAssayTM Kit (Trevigen, Gaithersburg, MD, USA) following the manufacturer’s protocol for the neutral Comet assay. […] The fluorescence images were analyzed using the TriTek Comet Image program to circumscribe the “head” and the “tail” regions of each comet and the integrated fluorescence values of each defined area were recorded. The comet length was measured from the trailing edge of the nucleus to the leading edge of the tail. […]

Molt 4 cells [4] = test: MTT antiproliferative assay, leukemia Molt 4 cells; assay type: cell-based; details: Homo sapiens
Cal-27 cells = test: MTT antiproliferative assay, oral Cal-27 cells; details: Homo sapiens, CAL-27, 72 h, read-out: IC50, cytotoxicity, Oral Cal-27
Description: as §2, §3

Ca9-22 cells = test: MTT antiproliferative assay, oral Ca9-22 cells; details: Homo sapiens, Ca9-22, 72 h, read-out: IC50, cytotoxicity, Oral Ca9-22
Description: as §2, §3

Molt 4 cells [5] = test: MMP disruption, JC-1 staining flow cytometry; assay type: cell-based, human; details: 0, 0.0625, 0.125 and 0.25 μg/mL, 24 h
Description: as §1

HL 60 cells = test: MTT antiproliferative assay, leukemia HL 60 cells; details: Homo sapiens, HL-60, 72 h, read-out: IC50, cytotoxicity, Leukemia HL 60
Description: as §2, §3

CC[C@@]1(C)CCC[C@]2(C)[C@H]3C[C@@H](OC(=O)C[C@@H](C)O)[C@]4(C)[C@@H](C=O)C(C(C)=O)=CC[C@H]4[C@]3(C)CC[C@@H]12 (relative stereo) [Compound 1, 12β-(3′β-hydroxybutanoyloxy)-20,24-dimethyl-24-oxo-scalara-16-en-25-al]
IC50 (DLD-1 cells): 2.33 µg/mL (≈ 4.65 µM)
IC50 (K562 cells): 0.01 µg/mL (≈ 0.02 µM)
apoptotic population of Molt 4 cells (Molt 4 cells [1]; 0, 0.0625, 0.125 and 0.25 μg/mL, 24 h, annexin-V/PI): increase in the apoptotic population
lowest dose inducing mitochondrial dysfunction and apoptotic cell death (Molt 4 cells [1]; 24 h, flow cytometry): 0.0625 µg/mL
concentration that triggered MMP disruption and apoptosis (Molt 4 cells [1]; Molt 4 cells, molar value in brackets): 125 nM
IC50 (T-47D cells): 2.19 µg/mL (≈ 4.37 µM)
IC50 (LNCaP cells): 13.9 µg/mL (≈ 27.7 µM)
IC50 (U937 cells): 0.01 µg/mL (≈ 0.02 µM)
increase in intracellular Ca2+ accumulation compared to MFI of control (Molt 4 cells [2]; 0.5 h): 1.03 folds
increase in intracellular Ca2+ accumulation compared to MFI of control (Molt 4 cells [2]; 1 h): 1.05 folds
increase in intracellular Ca2+ accumulation compared to MFI of control (Molt 4 cells [2]; 2 h): 1.06 folds
increase in intracellular Ca2+ accumulation compared to MFI of control (Molt 4 cells [2]; 3 h): 1.37 folds
increase in intracellular Ca2+ accumulation compared to MFI of control (Molt 4 cells [2]; 6 h): 2.41 folds
increase in intracellular Ca2+ accumulation compared to MFI of control (Molt 4 cells [2]; 18 h): 1.06 folds
DNA migration (DSBs), comet assay (Molt 4 cells [3]): increased the degree of DNA migration
IC50 (Molt 4 cells [4]; 72 h, read-out: IC50, cytotoxicity, Leukemia Molt 4): 0.01 µg/mL
IC50 (Molt 4 cells [4]; molar value in brackets, read-out: antiproliferative activity (IC50), Molt 4): 19.1 nM
IC50 (Cal-27 cells): 0.56 µg/mL (≈ 1.12 µM)
IC50 (Ca9-22 cells): 0.1 µg/mL (≈ 0.2 µM)
mitochondrial membrane potential (Molt 4 cells [5]): disruption in mitochondrial membrane potential
IC50 (HL 60 cells): 0.01 µg/mL (≈ 0.02 µM)
